Holding throughout (format): in vivo, BALB/C mice
In assay [1] the test system is peripheral blood mononuclear cells (PBMC). The assay is described as follows: PBMC gene expression (qPCR), 6 hours post-treatment. As for the experimental part:
Hydrogels were administered as suspensions in PTP buffer. […] Tumors were excised, weighed and snap frozen. […] For PBMC isolations, approximately 600 μl of whole blood was collected via cardiac puncture. The collected whole blood from each individual mouse was diluted with a 1:1 ratio of pre-warmed PBS supplemented with 2% Fetal Bovine Serum (FBS). Then an equal volume of Histopaque-1083 was added to a new sterile 15 mL conical tube, where the diluted whole blood was layered over the Histopaque-1083. The mixture was then centrifuged at 400 g for 30 minutes. The top plasma layer was discarded, and the white translucent interlayer (mononuclear cells) was carefully transferred to a new sterile centrifuge tube. The mononuclear cells were then washed with PBS supplemented with 2% FBS and then were spun down at 250 g for 10 minutes. […] RNA concentrations were measured using a NanoDrop (ThermoFisher) and then adjusted to […] with RNase-free water. RNA quality was assessed using a NanoDrop (ThermoFisher). […] 200 ng of cDNA was used for quantitative PCR using the RT^2 SYBR Green ROX qPCR Master mix (2X) kit (QIAGEN) following manufacturer's recommendations. […] For each gene, 3 technical replicates were analyzed per biological replicate. Undetermined technical replicate CT values were recorded as zero ΔCT values. 4-5 biological replicates were assessed in total.
In general terms: In qPCR the cycle at which signal appears reflects the starting amount.

The test system of assay [2] is Ly-6C+ T cells of CD8+ T cells. The assay is described as follows: Flow cytometric profiling of tumor draining lymph nodes. The following applies: tumor draining lymph node, 7 days after randomization. As for the experimental part: (§1) Hydrogels were administered as suspension in PTP buffer. Some cohorts were further treated with 20 μg human IL-2 (Peprotech, Rocky Hill, N.J.), intraperitoneally (I.P.), twice a day for 5 days. Mice were sacrificed 7 days after randomization (DO). Following sacrifice, tumor draining lymph nodes were isolated from both flanks and were dissociated mechanically to generate a single cell suspension at a cell concentration of 1×10^6 cells per sample. Cell suspensions were centrifuged at 300 g for 5 minutes. Supernatants were discarded and cells were resuspended in FACS buffer with 1 μg/ml Fc-Block and incubated at 4° C. for 10 minutes in the dark. Surface marker antibody mixtures (antibody concentration: 10 μg/mL) in FACS buffer were added to each sample and samples were incubated in the dark at 4° C. for 30 minutes. Cells were centrifuged at 300 g for 5 minutes and supernatants were discarded. Cells were washed and then resuspended with FACS buffer before cytometer collection.
(§2) After collection, FACS data was analyzed using FlowJo Version 10.6.1. Compensation was digitally adjusted using single antibody-stained beads. Samples with less than 90% viability, as determined by LiveDead cell staining, were excluded from the analysis. Cells were defined using the following gating strategy: • 1) Ly-6C^+ antigen presenting cells: FSC-H/FSC-A Singlets/LiveDead^−/CD45^+/CD3^−/CD335^−/Ly-6C^+ • 2) Ly-6C^+ MHCII^+ antigen presenting cells: FSC-H/FSC-A Singlets/LiveDead^−/CD45^+/CD3^−/CD335^−/Ly-6C^+/IA/IE (MHCII)^+ • 3) CD8^+ T cells: FSC-H/FSC-A Singlets/LiveDead^−/CD45^+/CD3^+/CD8 single positive 4) Ly-6C^+ CD8^+ T cells: FSC-H/FSC-A Singlets/LiveDead^−/CD45^+/CD3^+/CD8 single positive/Ly-6C^+
A general note: A flow cytometer gives signals particle by particle.

The subject of assay [3] is CD8+ T cells of CD3+ T cells. The assay is described as above. The note with it: tumor draining lymph node, 7 days after randomization. On the procedure:
as §1, §2

The structures appear in SMILES notation.

As to `CCOCc1nc2c(N)nc3ccccc3c2n1CC(C)(C)O` [Compound 4, Resiquimod], the “Il1a Mean (2^ΔΔCT)” value in assay [1] was found to be 0.41. Also, the “Frequency of Ly-6C+ T cells of CD8+ T cells, Mean” value is recorded as 53.7% in assay [2] (injected right flank) and 48% in assay [2] (uninjected left flank). Also, the “Frequency of CD8+ T cells of CD3+ T cells, Mean” value in assay [3] (injected right flank) is recorded as 29.23%; in assay [3] (uninjected left flank) it was 29%.

The values above are taken from US20220062273A1, “CONJUGATES OF PATTERN RECOGNITION RECEPTOR AGONISTS” (Ascendis Pharma Oncology Division A/S, priority 2019, published 2022).
